Test results from publication PMC9811530 (Experimental and Clinical Endocrinology & Diabetes, 2022).
Where two headings read alike, the source gives them in different places.

Type: in vivo, human
Details: for CL renal / Vd/F / AUC / AUC(0-t) / half-life / Cmax / Tmax: human, oral; for CL renal: plasma and urine; for Vd/F / AUC / AUC(0-t) / half-life / Cmax / Tmax: plasma; for Tmax: t max, median (min–max)

SMILES: N#Cc1ccc2c(c1)[C@H]1CCCN(C(=O)c3ccc4[nH]cnc4c3)[C@H]1C2 [BI 187004]
- fe0–24,SS (360 mg, Day 14, gMean (%gCV)): 6.46 (8.01) %
- BI 187004 Plasma Cday2 (360 mg, immediately after second dose, gMean (%gCV)): 2,660 (36.5) nmol/L
- dose proportionality of Cmax and AUCτ,ss (10 to 360 mg): increased non-proportionally
- time of absorption (10–360 mg): ≤ 2 h
- gMean oral clearance (CL/F,ss), range over dose groups (10–360 mg, day 14): 2.01 to 6.47 L/h
- accumulation in plasma (between days 1 and 14): limited
- CL renal (10 mg): 3.72 mL/min
- CL renal (20 mg): 4.3 mL/min
- CL renal (40 mg): 2.68 mL/min
- CL renal (80 mg): 3.47 mL/min
- CL renal (160 mg): 3.78 mL/min
- CL renal (240 mg): 4.38 mL/min
- CL renal (360 mg): 6.4 mL/min
- Vd/F: 195 to 1160 L
- AUC (10 mg): 14.5 µM·h
- AUC(0-t) (10 mg): 7.5 µM·h
- Vd/F (10 mg): 308 L
- half-life (10 mg): 106 h
- Cmax (10 mg, C max, 10 mg, Day 1, gMean (%gCV)): 0.681 µM
- Cmax (10 mg, C max,SS, 10 mg, Day 14, gMean (%gCV)): 1.24 µM
- Tmax (10 mg, 10 mg, Day 1): 2 h
- Tmax (10 mg, SS, 10 mg, Day 14): 0.834 h
- AUC (20 mg): 23 µM·h
- AUC(0-t) (20 mg): 13.9 µM·h
- Vd/F (20 mg): 253 L
- half-life (20 mg): 69.2 h
- Cmax (20 mg, C max, 20 mg, Day 1, gMean (%gCV)): 1.37 µM
- Cmax (20 mg, C max,SS, 20 mg, Day 14, gMean (%gCV)): 1.94 µM
- Tmax (20 mg, 20 mg, Day 1): 0.834 h
- Tmax (20 mg, SS, 20 mg, Day 14): 0.834 h
- AUC (40 mg): 26.9 µM·h
- AUC(0-t) (40 mg): 27.7 µM·h
- Vd/F (40 mg): 195 L
- half-life (40 mg): 42.8 h
- Cmax (40 mg, C max, 40 mg, Day 1, gMean (%gCV)): 2.92 µM
- Cmax (40 mg, C max,SS, 40 mg, Day 14, gMean (%gCV)): 3.4 µM
- Tmax (40 mg, 40 mg, Day 1): 1 h
- Tmax (40 mg, SS, 40 mg, Day 14): 0.834 h
- AUC (80 mg): 58.8 µM·h
- AUC(0-t) (80 mg): 46.5 µM·h
- Vd/F (80 mg): 346 L
- half-life (80 mg): 60.3 h
- Cmax (80 mg, C max, 80 mg, Day 1, gMean (%gCV)): 4.32 µM
- Cmax (80 mg, C max,SS, 80 mg, Day 14, gMean (%gCV)): 4.93 µM
- Tmax (80 mg, 80 mg, Day 1): 0.834 h
- Tmax (80 mg, SS, 80 mg, Day 14): 1.25 h
- AUC (160 mg): 127 µM·h
- AUC(0-t) (160 mg): 106 µM·h
- Vd/F (160 mg): 230 L
- half-life (160 mg): 43.1 h
- Cmax (160 mg, C max, 160 mg, Day 1, gMean (%gCV)): 11.5 µM
- Cmax (160 mg, C max,SS, 160 mg, Day 14, gMean (%gCV)): 12.1 µM
- Tmax (160 mg, 160 mg, Day 1): 1 h
- Tmax (160 mg, SS, 160 mg, Day 14): 0.667 h
- AUC (240 mg): 145 µM·h
- AUC(0-t) (240 mg): 130 µM·h
- Vd/F (240 mg): 359 L
- half-life (240 mg): 51.5 h
- Cmax (240 mg, C max, 240 mg, Day 1, gMean (%gCV)): 14.6 µM
- Cmax (240 mg, C max,SS, 240 mg, Day 14, gMean (%gCV)): 15 µM
- Tmax (240 mg, 240 mg, Day 1): 1 h
- Tmax (240 mg, SS, 240 mg, Day 14): 0.667 h
- AUC (360 mg): 162 µM·h
- AUC(0-t) (360 mg): 140 µM·h
- Vd/F (360 mg): 1160 L
- half-life (360 mg): 124 h
- Cmax (360 mg, C max, 360 mg, Day 1, gMean (%gCV)): 14.3 µM
- Cmax (360 mg, C max,SS, 360 mg, Day 14, gMean (%gCV)): 15.5 µM
- Tmax (360 mg, 360 mg, Day 1): 1 h
- Tmax (360 mg, SS, 360 mg, Day 14): 1.5 h
